Experimental data published in the OligoGym collection.
HELM strings list units from the 5' end as sugar, base in round brackets, then linkage (d deoxyribose, r ribose, m 2'-O-methyl, p phosphodiester). Strings are as the collection lists them; they lack the last nucleoside at the 3' end of the tested compound. [moe] = 2'-O-(2-methoxyethyl) (MOE); [sp] = phosphorothioate linkage; [m5C] = 5-methylcytosine

Molecular target: ATXN2
Assay: mouse, dose not given
Conditions: ASO

Compared with “RNA1{[moe]([m5C])[sp].[moe](G)p.[moe](T)p.[moe](A)p.[moe](T)p.[moe](G)p.d(T)[sp].d(T)[sp].d(T)[sp].d(G)[sp].d(T)[sp].d([m5C])[sp].d(T)[sp].d(G)[sp].d(T)[sp].d([m5C])[sp].[moe](T)p.[moe](T)[sp].[moe](A)}$$$$ (last 3' nucleoside missing)”, “RNA1{[moe](A)[sp].[moe](T)p.[moe](G)p.[moe](T)p.[moe](A)p.d(G)[sp].d(T)[sp].d(T)[sp].d(A)[sp].d([m5C])[sp].d(A)[sp].d(T)[sp].d(G)[sp].d(T)[sp].d(A)[sp].[moe](A)p.[moe]([m5C])p.[moe]([m5C])[sp].[moe](A)}$$$$ (last 3' nucleoside missing)” is lower in 3 h FOB score: 6.75 score 0-7 for the first, 2 score 0-7 for the second.

Going from “RNA1{[moe](T)[sp].[moe](T)p.[moe](A)p.[moe](G)p.[moe](G)p.d([m5C])[sp].d(T)[sp].d(A)[sp].d(G)[sp].d(G)[sp].d([m5C])[sp].d(A)[sp].d([m5C])[sp].d(A)[sp].d(T)[sp].[moe](G)p.[moe](G)p.[moe](A)[sp].[moe](G)}$$$$ (last 3' nucleoside missing)” to “RNA1{[moe](T)[sp].[moe](A)p.[moe]([m5C])p.[moe](A)p.[moe](G)p.d(G)[sp].d(T)[sp].d(G)[sp].d(A)[sp].d(G)[sp].d(A)[sp].d(T)[sp].d(A)[sp].d(T)[sp].d(A)[sp].[moe](T)p.[moe](A)p.[moe](G)[sp].[moe](G)}$$$$ (last 3' nucleoside missing)”, the 3 h FOB score falls from 5.25 score 0-7 to 4 score 0-7.

Compared with “RNA1{[moe](T)[sp].[moe](T)p.[moe](T)p.[moe](G)p.[moe]([m5C])p.d(T)[sp].d(T)[sp].d(A)[sp].d(T)[sp].d(T)[sp].d(A)[sp].d(T)[sp].d(T)[sp].d([m5C])[sp].d(T)[sp].[moe]([m5C])p.[moe](A)p.[moe]([m5C])[sp].[moe](A)}$$$$ (last 3' nucleoside missing)”, “RNA1{[moe]([m5C])[sp].[moe]([m5C])p.[moe](G)p.[moe](G)p.[moe](A)p.d(T)[sp].d(T)[sp].d(G)[sp].d(T)[sp].d(T)[sp].d(T)[sp].d(T)[sp].d([m5C])[sp].d(T)[sp].d(T)[sp].[moe]([m5C])p.[moe](A)p.[moe](T)[sp].[moe](T)}$$$$ (last 3' nucleoside missing)” is higher in 3 h FOB score: 0 score 0-7 for the first, 1 score 0-7 for the second.

First: RNA1{[moe](T)[sp].[moe](G)p.[moe](G)p.[moe](A)p.[moe](T)p.d(T)[sp].d([m5C])[sp].d(T)[sp].d(G)[sp].d(T)[sp].d(A)[sp].d([m5C])[sp].d(T)[sp].d(T)[sp].d(T)[sp].[moe](T)p.[moe]([m5C])p.[moe](T)[sp].[moe]([m5C])}$$$$ (last 3' nucleoside missing)
Second: RNA1{[moe](G)[sp].[moe](T)p.[moe](G)p.[moe](A)p.[moe](T)p.d(G)[sp].d(T)[sp].d(T)[sp].d(T)[sp].d([m5C])[sp].d(A)[sp].d(T)[sp].d(T)[sp].d(G)[sp].d(G)[sp].[moe](G)p.[moe](T)p.[moe](T)[sp].[moe](T)}$$$$ (last 3' nucleoside missing)
The 3 h FOB score of the first is higher: 5.25 score 0-7 for the first, 4.5 score 0-7 for the second.

Going from “RNA1{[moe](T)[sp].[moe](G)p.[moe](G)p.[moe](A)p.[moe](T)[sp].d(T)[sp].d([m5C])[sp].d(T)[sp].d(G)[sp].d(T)[sp].d(A)[sp].d([m5C])[sp].d(T)[sp].[moe](T)p.[moe](T)p.[moe](T)[sp].[moe]([m5C])}$$$$ (last 3' nucleoside missing)” to “RNA1{[moe](T)[sp].[moe](G)p.[moe](T)p.[moe](A)p.[moe]([m5C])p.d(T)[sp].d(T)[sp].d([m5C])[sp].d(A)[sp].d([m5C])[sp].d(A)[sp].d(T)[sp].d(T)[sp].d(T)[sp].d(G)[sp].[moe](G)p.[moe](A)p.[moe](G)[sp].[moe]([m5C])}$$$$ (last 3' nucleoside missing)”, the 3 h FOB score falls from 5.25 score 0-7 to 2 score 0-7.

First: RNA1{[moe](G)[sp].[moe](T)p.[moe](G)p.[moe](T)p.[moe](T)p.d(T)[sp].d(A)[sp].d(A)[sp].d(T)[sp].d(T)[sp].d(T)[sp].d(G)[sp].d(T)[sp].d(A)[sp].d(A)[sp].[moe]([m5C])p.[moe](T)p.[moe](A)[sp].[moe](G)}$$$$ (last 3' nucleoside missing)
Second: RNA1{[moe]([m5C])[sp].[moe]([m5C])p.[moe](T)p.[moe](A)p.[moe](T)p.d([m5C])[sp].d(A)[sp].d(T)[sp].d([m5C])[sp].d(A)[sp].d(T)[sp].d(T)[sp].d(T)[sp].d(T)[sp].d([m5C])[sp].[moe]([m5C])p.[moe](A)p.[moe](G)[sp].[moe](G)}$$$$ (last 3' nucleoside missing)
The 3 h FOB score of the first is lower: 4 score 0-7 for the first, 5.5 score 0-7 for the second.

Going from “RNA1{[moe](G)[sp].[moe](T)p.[moe](A)p.[moe](T)p.[moe](G)[sp].d(T)[sp].d(T)[sp].d(T)[sp].d(G)[sp].d(T)[sp].d([m5C])[sp].d(T)[sp].d(G)[sp].[moe](T)p.[moe]([m5C])p.[moe](T)[sp].[moe](T)}$$$$ (last 3' nucleoside missing)” to “RNA1{[moe](T)[sp].[moe]([m5C])p.[moe](T)p.[moe](G)p.d(T)[sp].d(A)[sp].d([m5C])[sp].d(T)[sp].d(T)[sp].d(T)[sp].d(T)[sp].d([m5C])[sp].d(T)[sp].d([m5C])[sp].[moe](A)p.[moe](T)p.[moe](G)p.[moe](T)[sp].[moe](G)}$$$$ (last 3' nucleoside missing)”, the 3 h FOB score falls from 6.5 score 0-7 to 0 score 0-7.

Compared with “RNA1{[moe](G)[sp].[moe](G)p.[moe](A)p.[moe]([m5C])p.[moe](A)p.d(A)[sp].d(G)[sp].d(A)[sp].d(A)[sp].d(A)[sp].d(T)[sp].d(T)[sp].d(T)[sp].d(T)[sp].d([m5C])[sp].[moe](A)p.[moe](G)p.[moe](T)[sp].[moe](T)}$$$$ (last 3' nucleoside missing)”, “RNA1{[moe](G)[sp].[moe](T)p.[moe](G)p.[moe](T)p.[moe](T)p.d(T)[sp].d(G)[sp].d(G)[sp].d(G)[sp].d(A)[sp].d(T)[sp].d(G)[sp].d([m5C])[sp].d(T)[sp].d(T)[sp].[moe]([m5C])p.[moe](A)p.[moe](G)[sp].[moe](A)}$$$$ (last 3' nucleoside missing)” is higher in 3 h FOB score: 4.5 score 0-7 for the first, 5.5 score 0-7 for the second.

Going from “RNA1{[moe](A)[sp].[moe]([m5C])p.[moe](A)p.[moe]([m5C])p.[moe](A)p.[moe](G)p.d(T)[sp].d(T)[sp].d(T)[sp].d([m5C])[sp].d(A)[sp].d([m5C])[sp].d(T)[sp].d(A)[sp].d(G)[sp].d(G)[sp].[moe](T)p.[moe](T)[sp].[moe]([m5C])}$$$$ (last 3' nucleoside missing)” to “RNA1{[moe](T)[sp].[moe](A)p.[moe](T)p.[moe](G)p.[moe](A)p.d(G)[sp].d(G)[sp].d(G)[sp].d(A)[sp].d([m5C])[sp].d(T)[sp].d(A)[sp].d(G)[sp].d(A)[sp].d(G)[sp].[moe]([m5C])p.[moe](A)p.[moe](T)[sp].[moe]([m5C])}$$$$ (last 3' nucleoside missing)”, the 3 h FOB score rises from 1 score 0-7 to 6.25 score 0-7.

Going from “RNA1{[moe](A)[sp].[moe](G)p.[moe]([m5C])p.[moe](T)p.[moe](T)p.d(A)[sp].d(G)[sp].d(A)[sp].d(G)[sp].d(T)[sp].d(T)[sp].d(T)[sp].d(T)[sp].d(T)[sp].d(G)[sp].[moe]([m5C])p.[moe]([m5C])p.[moe](T)[sp].[moe](T)}$$$$ (last 3' nucleoside missing)” to “RNA1{[moe](G)[sp].[moe]([m5C])p.[moe](T)p.[moe](G)p.[moe](T)p.d(G)[sp].d(T)[sp].d(A)[sp].d(T)[sp].d(T)[sp].d(T)[sp].d(T)[sp].d(T)[sp].d([m5C])[sp].d(T)[sp].[moe](T)p.[moe]([m5C])p.[moe]([m5C])[sp].[moe](T)}$$$$ (last 3' nucleoside missing)”, the 3 h FOB score falls from 5 score 0-7 to 0 score 0-7.

“RNA1{[moe](A)[sp].[moe](T)p.[moe](G)p.[moe]([m5C])p.[moe](T)p.d(G)[sp].d(G)[sp].d(T)[sp].d(T)[sp].d([m5C])[sp].d([m5C])[sp].d(T)[sp].d(T)[sp].d(A)[sp].d([m5C])[sp].[moe](A)p.[moe](A)p.[moe](T)[sp].[moe](T)}$$$$ (last 3' nucleoside missing)” and “RNA1{[moe](G)[sp].[moe]([m5C])p.[moe](G)p.[moe](G)p.[moe](T)p.d(G)[sp].d(A)[sp].d(A)[sp].d(T)[sp].d(T)[sp].d([m5C])[sp].d(T)[sp].d(G)[sp].d(T)[sp].d([m5C])[sp].[moe](T)p.[moe]([m5C])p.[moe]([m5C])[sp].[moe]([m5C])}$$$$ (last 3' nucleoside missing)” are the same in 3 h FOB score: 0 score 0-7 for the first, 0 score 0-7 for the second.

Going from “RNA1{[moe](T)[sp].[moe]([m5C])p.[moe](T)p.[moe](G)[sp].[moe](T)[sp].d(A)[sp].d([m5C])[sp].d(T)[sp].d(T)[sp].d(T)[sp].d(T)[sp].d([m5C])[sp].d(T)[sp].d([m5C])[sp].d(A)[sp].[moe](T)p.[moe](G)p.[moe](T)[sp].[moe](G)}$$$$ (last 3' nucleoside missing)” to “RNA1{[moe]([m5C])[sp].[moe](T)p.[moe](G)p.[moe](T)p.[moe](G)p.d(T)[sp].d(A)[sp].d(T)[sp].d(T)[sp].d(T)[sp].d(T)[sp].d(T)[sp].d([m5C])[sp].d(T)[sp].d(T)[sp].[moe]([m5C])p.[moe]([m5C])p.[moe](T)[sp].[moe]([m5C])}$$$$ (last 3' nucleoside missing)”, the 3 h FOB score falls from 1 score 0-7 to 0 score 0-7.

First: RNA1{[moe](A)[sp].[moe](A)p.[moe](G)p.[moe](A)p.[moe](A)p.d(T)[sp].d([m5C])[sp].d([m5C])[sp].d(T)[sp].d(T)[sp].d(A)[sp].d(G)[sp].d([m5C])[sp].d(A)[sp].d([m5C])[sp].[moe](T)p.[moe](T)p.[moe](G)[sp].[moe](G)}$$$$ (last 3' nucleoside missing)
Second: RNA1{[moe](A)[sp].[moe](T)p.[moe]([m5C])p.[moe](A)p.[moe](G)p.d(T)[sp].d(T)[sp].d(T)[sp].d(G)[sp].d(T)[sp].d(A)[sp].d(T)[sp].d(G)[sp].d(A)[sp].d([m5C])[sp].[moe]([m5C])p.[moe](A)p.[moe](T)[sp].[moe](A)}$$$$ (last 3' nucleoside missing)
The 3 h FOB score of the first is higher: 6.25 score 0-7 for the first, 3 score 0-7 for the second.

In the case of “RNA1{[moe](A)[sp].[moe](A)p.[moe]([m5C])p.[moe](A)p.[moe](G)p.d([m5C])[sp].d(T)[sp].d([m5C])[sp].d(T)[sp].d(G)[sp].d(T)[sp].d(T)[sp].d([m5C])[sp].d(G)[sp].d(A)[sp].[moe](T)p.[moe](G)p.[moe]([m5C])[sp].[moe](A)}$$$$ (last 3' nucleoside missing)”, the 3 h FOB score is reported as 6 score 0-7.
